For 33 compounds, melting point results are on record in patent US7183276B2, “Azole compounds” (Takeda Pharmaceutical Company Limited, priority 2002, dated 2007).

Molecules are shown by their SMILES.

The compound `N#Cc1ccc(NC(=O)CCc2oc(-n3cnc4ccccc43)nc2-c2ccc(Cl)cc2)cc1` [Example 112, 3-[2-(1H-benzimidazol-1-yl)-4-(4-chlorophenyl)-5-oxazolyl]-N-(4-cyanophenyl)propionamide] returned a melting point of 216 to 217 °C.

`N#Cc1ccccc1NC(=O)CCc1oc(-n2cnc3ccccc32)nc1-c1ccc(Cl)cc1` [Example 113, 3-[2-(1H-benzimidazol-1-yl)-4-(4-chlorophenyl)-5-oxazolyl]-N-(2-cyanophenyl)propionamide] showed a melting point of 186 to 187 °C.

Regarding `COc1ccc(NC(=O)CCc2oc(-n3cnc4ccccc43)nc2-c2ccc(Cl)cc2)cc1` [Example 114, 3-[2-(1H-benzimidazol-1-yl)-4-(4-chlorophenyl)-5-oxazolyl]-N-(4-methoxyphenyl)propionamide], the melting point was in the range of 240 to 241 °C.

For `COc1ccccc1NC(=O)CCc1oc(-n2cnc3ccccc32)nc1-c1ccc(Cl)cc1` [Example 115, 3-[2-(1H-benzimidazol-1-yl)-4-(4-chlorophenyl)-5-oxazolyl]-N-(2-methoxyphenyl)propionamide], the melting point lay in the range of 194 to 195 °C.

Take `O=C(CCc1oc(-n2cnc3ccccc32)nc1-c1ccc(Cl)cc1)Nc1ccc(C2CCCCC2)cc1` [Example 116, 3-[2-(1H-benzimidazol-1-yl)-4-(4-chlorophenyl)-5-oxazolyl]-N-(4-cyclohexylphenyl)propionamide]: the melting point is 216 to 217 °C.

On to `CC(C)(C)c1ccc(NC(=O)CCc2oc(-n3cnc4ccccc43)nc2-c2ccc(Cl)cc2)cc1` [Example 117, 3-[2-(1H-benzimidazol-1-yl)-4-(4-chlorophenyl)-5-oxazolyl]-N-(4-tert-butylphenyl)propionamide], for which the melting point lay in the range of 219 to 220 °C.

In turn, `O=C(CCc1oc(-n2cnc3ccccc32)nc1-c1ccc(Cl)cc1)Nc1ccccc1` [Example 120, 3-[2-(1H-benzimidazol-1-yl)-4-(4-chlorophenyl)-5-oxazolyl]-N-phenylpropionamide] gave a melting point of 226 to 227 °C.

As for `O=C(CCc1oc(-n2cnc3ccccc32)nc1-c1ccc(Cl)cc1)Nc1ccc(C(F)(F)F)cc1` [Example 121, 3-[2-(1H-benzimidazol-1-yl)-4-(4-chlorophenyl)-5-oxazolyl]-N-[4-(trifluoromethyl)phenyl]propionamide], the melting point was in the range of 259 to 263 °C.

Compound `O=C(CCc1oc(-n2cnc3ccccc32)nc1-c1ccc(Cl)cc1)Nc1ccc(OC(F)(F)F)cc1` [Example 122, 3-[2-(1H-benzimidazol-1-yl)-4-(4-chlorophenyl)-5-oxazolyl]-N-[4-(trifluoromethoxy)phenyl]propionamide] showed a melting point of 174 to 175 °C.

In the case of `Cc1ccc(CNC(=O)CCc2oc(-n3cnc4ccccc43)nc2-c2ccc(Cl)cc2)cc1` [Example 125, 3-[2-(1H-benzimidazol-1-yl)-4-(4-chlorophenyl)-5-oxazolyl]-N-(4-methylbenzyl)propionamide], the melting point is 241 to 242 °C.

`CC(C)c1ccc(NC(=O)CCc2oc(-n3cnc4ccccc43)nc2-c2ccc(Cl)cc2)cc1` [Example 126, 3-[2-(1H-benzimidazol-1-yl)-4-(4-chlorophenyl)-5-oxazolyl]-N-(4-isopropylphenyl)propionamide] displayed a melting point of 232 to 233 °C.

In turn, `COc1cc(NC(=O)CCc2oc(-n3cnc4ccccc43)nc2-c2ccc(Cl)cc2)cc(OC)c1OC` [Example 127, 3-[2-(1H-benzimidazol-1-yl)-4-(4-chlorophenyl)-5-oxazolyl]-N-(3,4,5-trimethoxyphenyl)propionamide] had a melting point of 228 to 229 °C.

Consider `O=C(CCc1oc(-n2cnc3ccccc32)nc1-c1ccc(Cl)cc1)Nc1ccc(F)cc1` [Example 128, 3-[2-(1H-benzimidazol-1-yl)-4-(4-chlorophenyl)-5-oxazolyl]-N-(4-fluorophenyl)propionamide], for which the melting point fell in the range of 221 to 222 °C.

In turn, `COC(=O)Cc1csc(NC(=O)CCc2oc(-n3cnc4ccccc43)nc2-c2ccc(Cl)cc2)n1` [Example 129, 3-[2-(1H-benzimidazol-1-yl)-4-(4-chlorophenyl)-5-oxazolyl]-N-{4-[(methoxycarbonyl)methyl]-2-thiazolyl}propionamide] registered a melting point of 233 to 234 °C.

`CN(C)c1ccc(NC(=O)CCc2oc(-n3cnc4ccccc43)nc2-c2ccc(Cl)cc2)cc1` [Example 130, 3-[2-(1H-benzimidazol-1-yl)-4-(4-chlorophenyl)-5-oxazolyl]-N-[4-(dimethylamino)phenyl]propionamide]: the melting point lay in the range of 212 to 214 °C.

For the compound `O=C(CCc1oc(-n2cnc3ccccc32)nc1-c1ccc(Cl)cc1)NCc1ccccc1` [Example 132, 3-[2-(1H-benzimidazol-1-yl)-4-(4-chlorophenyl)-5-oxazolyl]-N-benzylpropionamide], the melting point is 205 to 206 °C.

`COc1ccccc1CNC(=O)CCc1oc(-n2cnc3ccccc32)nc1-c1ccc(Cl)cc1` [Example 133, 3-[2-(1H-benzimidazol-1-yl)-4-(4-chlorophenyl)-5-oxazolyl]-N-(2-methoxybenzyl)propionamide] registered a melting point of 210 to 211 °C.

Compound `O=C(CCc1oc(-n2cnc3ccccc32)nc1-c1ccc(Cl)cc1)NCc1ccccc1Cl` [Example 134, 3-[2-(1H-benzimidazol-1-yl)-4-(4-chlorophenyl)-5-oxazolyl]-N-(2-chlorobenzyl)propionamide] displayed a melting point of 222 to 223 °C.

For `CN(C)c1ccc(CNC(=O)CCc2oc(-n3cnc4ccccc43)nc2-c2ccc(Cl)cc2)cc1` [Example 135, 3-[2-(1H-benzimidazol-1-yl)-4-(4-chlorophenyl)-5-oxazolyl)-N-[4-(dimethylamino)benzyl]propionamide], the melting point is 184 to 185 °C.

`O=C(CCc1oc(-n2cnc3ccccc32)nc1-c1ccc(Cl)cc1)NCCc1ccccc1` [Example 136, 3-[2-(1H-benzimidazol-1-yl)-4-(4-chlorophenyl)-5-oxazolyl]-N-(2-phenylethyl)propionamide] returned a melting point of 164 to 165 °C.

Compound `O=C(CCc1oc(-n2cnc3ccccc32)nc1-c1ccc(Cl)cc1)NCc1ccccc1F` [Example 137, 3-[2-(1H-benzimidazol-1-yl)-4-(4-chlorophenyl)-5-oxazolyl]-N-(2-fluorobenzyl)propionamide] returned a melting point of 202 to 203 °C.

`O=C(CCc1oc(-n2cnc3ccccc32)nc1-c1ccc(Cl)cc1)NCc1ccc(C(F)(F)F)cc1` [Example 138, 3-[2-(1H-benzimidazol-1-yl)-4-(4-chlorophenyl)-5-oxazolyl]-N-[4-(trifluoromethyl)benzyl]propionamide] returned a melting point of 194 to 195 °C.

Compound `COc1ccccc1NC(=O)Cc1ccc(NC(=O)CCc2oc(-n3cnc4ccccc43)nc2-c2ccc(Cl)cc2)cc1` [Example 139, 2-[4-(N-{3-[2-(1H-benzimidazol-1-yl)-4-(4-chlorophenyl)-5-oxazolyl]propanoyl}amino)phenyl]-N-(2-methoxyphenyl)acetamide] came in with a melting point of 258 to 259 °C.

`CN(C)c1ccc(NC(=O)Cc2ccc(NC(=O)CCc3oc(-n4cnc5ccccc54)nc3-c3ccc(Cl)cc3)cc2)cc1` [Example 140, 2-[4-(N-{3-[2-(1H-benzimidazol-1-yl)-4-(4-chlorophenyl)-5-oxazolyl]propanoyl}amino)phenyl]-N-[4-(dimethylamino)phenyl]acetamide] had a melting point of 169 to 170 °C.

Turning to `Cc1nccn1-c1nc(-c2ccc(Cl)cc2)c(CCC(=O)Nc2ccc(CC#N)cc2)o1` [Example 141, 3-[4-(4-chlorophenyl)-2-(2-methyl-1-imidazolyl)-5-oxazolyl]-N-[4-(cyanomethyl)phenyl]propionamide], the melting point lay within 187 to 188 °C.

Regarding `CN(C)C(=O)Cc1ccc(NC(=O)CCc2oc(-n3cnc4ccccc43)nc2-c2ccc(Cl)cc2)cc1` [Example 142, 2-[4-({3-[2-(1H-benzimidazol-1-yl)-4-(4-chlorophenyl)-5-oxazolyl]propanoyl}amino)phenyl]-N,N-dimethylacetamide], the melting point lay within 207 to 208 °C.

For the compound `CNC(=O)Cc1ccc(NC(=O)CCc2oc(-n3cnc4ccccc43)nc2-c2ccc(Cl)cc2)cc1` [Example 143, 2-[4-({3-[2-(1H-benzimidazol-1-yl)-4-(4-chlorophenyl)-5-oxazolyl]propanoyl}amino)phenyl]-N-methylacetamide], the melting point lay within 219 to 221 °C.

Regarding `CC(C)(C)c1ccc(CNC(=O)CCc2oc(-n3cnc4ccccc43)nc2-c2ccc(Cl)cc2)cc1` [Example 144, 3-[2-(1H-benzimidazol-1-yl)-4-(4-chlorophenyl)-5-oxazolyl]-N-[4-tert-butylbenzyl]propionamide], the melting point lay in the range of 170 to 171 °C.

`COc1ccc(CNC(=O)CCc2oc(-n3cnc4ccccc43)nc2-c2ccc(Cl)cc2)cc1` [Example 145, 3-[2-(1H-benzimidazol-1-yl)-4-(4-chlorophenyl)-5-oxazolyl]-N-(4-methoxybenzyl)propionamide] yielded a melting point of 210 to 212 °C.

Compound `Cc1ccc(CNC(=O)CCc2oc(-n3cnc4ccccc43)nc2-c2ccc(Cl)cc2)cc1` [Example 146, 3-[2-(1H-benzimidazol-1-yl)-4-(4-chlorophenyl)-5-oxazolyl]-N-(4-methylbenzyl)propionamide] gave a melting point of 210 to 212 °C.

In turn, `O=C(CCc1oc(-n2cnc3ccccc32)nc1-c1ccc(Cl)cc1)NCc1ccc(Cl)c(Cl)c1` [Example 147, 3-[2-(1H-benzimidazol-1-yl)-4-(4-chlorophenyl)-5-oxazolyl]-N-(3,4-dichlorobenzyl)propionamide] showed a melting point of 190 to 191 °C.

In turn, `O=C(CCc1oc(-n2cnc3ccccc32)nc1-c1ccc(Cl)cc1)NCC(=O)NCc1ccccc1` [Example 148, 2-({3-[2-(1H-benzimidazol-1-yl)-4-(4-chlorophenyl)-5-oxazolyl]propanoyl}amino)-N-benzylacetamide] yielded a melting point of 186 to 187 °C.

`O=C(CCc1oc(-n2cnc3ccccc32)nc1-c1ccc(Cl)cc1)NCC(=O)Nc1ccccc1` [Example 149, 2-({3-[2-(1H-benzimidazol-1-yl)-4-(4-chlorophenyl)-5-oxazolyl]propanoyl}amino)-N-phenylacetamide] returned a melting point of 250 to 251 °C.
